The results in this text go back to ChEMBL document CHEMBL5291721, “A preclinical secondary pharmacology resource illuminates target-adverse drug reaction associations of marketed drugs” (Nat Commun, 2023).

Assay [1] concerns the target T1, Muscarinic acetylcholine receptor M4 (Homo sapiens, UniProt P08173).
T1 sequence (P08173 whole entry): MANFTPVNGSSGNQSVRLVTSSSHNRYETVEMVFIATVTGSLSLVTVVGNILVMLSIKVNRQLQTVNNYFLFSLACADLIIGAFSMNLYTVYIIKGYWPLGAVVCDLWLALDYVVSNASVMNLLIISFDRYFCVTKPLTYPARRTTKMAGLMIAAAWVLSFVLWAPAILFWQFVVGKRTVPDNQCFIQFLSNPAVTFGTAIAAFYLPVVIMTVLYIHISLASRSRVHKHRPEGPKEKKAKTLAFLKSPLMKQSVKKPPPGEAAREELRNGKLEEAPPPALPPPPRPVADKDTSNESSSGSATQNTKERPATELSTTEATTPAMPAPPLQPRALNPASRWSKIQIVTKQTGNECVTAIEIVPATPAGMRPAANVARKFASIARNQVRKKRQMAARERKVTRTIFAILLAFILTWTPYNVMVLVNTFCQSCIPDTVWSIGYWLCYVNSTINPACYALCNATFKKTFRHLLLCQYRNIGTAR

Assay [2] has as its target T2, Muscarinic acetylcholine receptor M5 (Homo sapiens, UniProt P08912).
T2 sequence (P08912 whole entry): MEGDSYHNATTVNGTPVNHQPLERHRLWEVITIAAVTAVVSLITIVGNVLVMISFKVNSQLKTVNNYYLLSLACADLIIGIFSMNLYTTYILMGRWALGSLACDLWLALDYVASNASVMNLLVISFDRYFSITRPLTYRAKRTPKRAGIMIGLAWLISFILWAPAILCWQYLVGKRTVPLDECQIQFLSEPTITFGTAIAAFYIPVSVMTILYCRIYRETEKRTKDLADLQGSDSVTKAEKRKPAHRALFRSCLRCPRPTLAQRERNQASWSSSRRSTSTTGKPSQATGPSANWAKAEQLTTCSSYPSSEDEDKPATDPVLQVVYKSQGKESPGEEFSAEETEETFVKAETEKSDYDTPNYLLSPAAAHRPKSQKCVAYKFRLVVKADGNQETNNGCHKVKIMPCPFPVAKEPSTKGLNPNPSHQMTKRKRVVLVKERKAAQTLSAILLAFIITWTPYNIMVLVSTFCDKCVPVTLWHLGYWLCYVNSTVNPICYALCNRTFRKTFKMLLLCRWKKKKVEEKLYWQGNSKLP

In assay [3] the target is D(1B) dopamine receptor (Homo sapiens, UniProt P21918).
Sequence of D(1B) dopamine receptor (P21918 whole entry): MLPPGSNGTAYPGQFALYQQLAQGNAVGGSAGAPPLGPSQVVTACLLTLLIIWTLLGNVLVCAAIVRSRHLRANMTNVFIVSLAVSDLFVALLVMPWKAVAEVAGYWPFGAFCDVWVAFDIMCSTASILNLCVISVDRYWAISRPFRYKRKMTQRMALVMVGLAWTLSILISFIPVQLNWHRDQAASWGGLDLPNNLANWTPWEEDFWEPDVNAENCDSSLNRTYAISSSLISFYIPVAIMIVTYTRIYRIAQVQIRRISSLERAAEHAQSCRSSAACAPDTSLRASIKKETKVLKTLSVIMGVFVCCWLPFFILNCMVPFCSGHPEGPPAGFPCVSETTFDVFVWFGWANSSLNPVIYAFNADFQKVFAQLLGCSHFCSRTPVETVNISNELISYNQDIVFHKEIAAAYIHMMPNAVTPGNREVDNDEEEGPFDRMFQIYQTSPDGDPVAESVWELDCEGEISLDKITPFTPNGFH
Assay [4] addresses 5-hydroxytryptamine receptor 5A (Homo sapiens, UniProt P47898).
Assay [5] concerns the target Rod cGMP-specific 3',5'-cyclic phosphodiesterase subunit alpha (Homo sapiens, UniProt P16499). Type of assay: functional.
The target of assay [6] is T3, Substance-K receptor (Homo sapiens, UniProt P21452).
T3 sequence (P21452 whole entry): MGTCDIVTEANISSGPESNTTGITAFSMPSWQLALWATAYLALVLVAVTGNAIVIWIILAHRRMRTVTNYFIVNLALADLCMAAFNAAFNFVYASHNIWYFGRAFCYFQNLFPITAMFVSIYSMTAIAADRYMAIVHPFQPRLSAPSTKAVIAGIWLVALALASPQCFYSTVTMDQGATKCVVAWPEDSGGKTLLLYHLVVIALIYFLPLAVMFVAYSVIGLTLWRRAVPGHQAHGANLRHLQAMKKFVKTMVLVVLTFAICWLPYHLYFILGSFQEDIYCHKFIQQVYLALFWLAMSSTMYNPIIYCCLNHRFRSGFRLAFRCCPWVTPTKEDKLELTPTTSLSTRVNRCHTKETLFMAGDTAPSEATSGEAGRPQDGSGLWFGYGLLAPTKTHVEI

For assay [7], the target named is Vascular endothelial growth factor receptor 2 (Homo sapiens, UniProt P35968). Format: functional.
Sequence of Vascular endothelial growth factor receptor 2 (P35968 whole entry): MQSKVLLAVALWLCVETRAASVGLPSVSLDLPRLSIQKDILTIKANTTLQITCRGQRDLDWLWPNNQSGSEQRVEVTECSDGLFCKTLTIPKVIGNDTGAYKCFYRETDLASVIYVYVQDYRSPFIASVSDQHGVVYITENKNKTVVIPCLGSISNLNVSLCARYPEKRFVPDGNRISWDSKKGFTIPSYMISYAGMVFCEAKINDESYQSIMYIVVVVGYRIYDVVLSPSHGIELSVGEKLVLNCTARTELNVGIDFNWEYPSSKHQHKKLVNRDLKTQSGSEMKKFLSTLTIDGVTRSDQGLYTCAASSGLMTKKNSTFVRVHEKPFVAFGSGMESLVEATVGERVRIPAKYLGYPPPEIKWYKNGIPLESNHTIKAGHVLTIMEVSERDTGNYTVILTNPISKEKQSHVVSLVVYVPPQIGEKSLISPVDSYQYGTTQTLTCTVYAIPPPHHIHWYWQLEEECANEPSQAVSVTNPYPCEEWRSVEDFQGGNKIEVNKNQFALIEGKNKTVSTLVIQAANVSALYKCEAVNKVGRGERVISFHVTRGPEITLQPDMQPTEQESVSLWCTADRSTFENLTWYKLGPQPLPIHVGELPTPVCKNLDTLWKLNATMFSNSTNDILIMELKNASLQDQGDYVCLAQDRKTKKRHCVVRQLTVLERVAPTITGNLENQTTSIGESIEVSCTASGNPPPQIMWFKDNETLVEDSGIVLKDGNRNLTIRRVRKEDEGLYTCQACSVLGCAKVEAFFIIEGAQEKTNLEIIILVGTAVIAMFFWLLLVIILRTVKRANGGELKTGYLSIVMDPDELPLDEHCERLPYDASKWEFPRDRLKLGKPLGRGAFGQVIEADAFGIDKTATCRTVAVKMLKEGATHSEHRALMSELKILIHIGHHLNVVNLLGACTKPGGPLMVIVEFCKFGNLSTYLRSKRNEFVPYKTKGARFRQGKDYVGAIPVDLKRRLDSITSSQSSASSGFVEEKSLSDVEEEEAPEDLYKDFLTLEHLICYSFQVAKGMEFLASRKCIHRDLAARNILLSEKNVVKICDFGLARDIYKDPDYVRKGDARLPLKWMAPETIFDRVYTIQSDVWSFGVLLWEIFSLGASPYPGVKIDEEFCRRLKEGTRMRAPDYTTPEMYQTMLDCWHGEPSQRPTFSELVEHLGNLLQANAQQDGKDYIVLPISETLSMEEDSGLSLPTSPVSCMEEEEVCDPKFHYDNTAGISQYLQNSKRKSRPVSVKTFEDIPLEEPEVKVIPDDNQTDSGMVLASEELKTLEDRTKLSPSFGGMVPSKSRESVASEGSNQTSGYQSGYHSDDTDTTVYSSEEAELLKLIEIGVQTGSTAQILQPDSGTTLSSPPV
For assay [8], the target named is T4, Androgen receptor (Rattus norvegicus, UniProt P15207).
T4 sequence (P15207 whole entry): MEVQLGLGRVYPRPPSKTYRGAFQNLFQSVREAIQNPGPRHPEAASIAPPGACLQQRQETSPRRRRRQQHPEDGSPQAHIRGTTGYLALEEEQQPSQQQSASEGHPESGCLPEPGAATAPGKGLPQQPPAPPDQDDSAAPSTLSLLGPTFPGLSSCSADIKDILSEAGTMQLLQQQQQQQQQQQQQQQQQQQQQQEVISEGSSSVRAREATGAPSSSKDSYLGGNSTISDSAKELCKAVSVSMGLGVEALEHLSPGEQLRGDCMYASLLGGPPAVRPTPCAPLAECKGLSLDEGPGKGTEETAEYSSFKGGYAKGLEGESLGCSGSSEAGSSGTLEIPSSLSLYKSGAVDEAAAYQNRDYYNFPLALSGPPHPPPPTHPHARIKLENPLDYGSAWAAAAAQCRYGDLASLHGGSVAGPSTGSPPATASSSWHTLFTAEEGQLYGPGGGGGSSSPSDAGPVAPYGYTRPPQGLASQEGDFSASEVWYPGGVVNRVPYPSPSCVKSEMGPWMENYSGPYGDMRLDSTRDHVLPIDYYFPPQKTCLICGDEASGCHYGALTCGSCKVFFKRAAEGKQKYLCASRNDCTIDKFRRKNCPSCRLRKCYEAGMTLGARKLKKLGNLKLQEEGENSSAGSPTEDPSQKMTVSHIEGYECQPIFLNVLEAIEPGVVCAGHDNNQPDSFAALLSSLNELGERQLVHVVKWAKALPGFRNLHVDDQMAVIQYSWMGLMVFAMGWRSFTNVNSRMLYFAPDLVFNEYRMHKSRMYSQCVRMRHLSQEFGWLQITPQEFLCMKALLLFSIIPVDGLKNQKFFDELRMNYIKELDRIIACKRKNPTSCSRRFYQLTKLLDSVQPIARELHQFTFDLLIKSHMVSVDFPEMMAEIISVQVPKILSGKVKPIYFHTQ
Type of assay: functional.

Assay [9] has as its target T5, Histamine H1 receptor (Homo sapiens, UniProt P35367). Format: functional, cell-based.
In assay [10] the target is T5, Histamine H1 receptor. Type of assay: functional, cell-based. This is another data set of the same source.
The target of assay [11] is Beta-1 adrenergic receptor (Homo sapiens, UniProt P08588). Format: functional, cell-based.
Sequence of Beta-1 adrenergic receptor (P08588 whole entry): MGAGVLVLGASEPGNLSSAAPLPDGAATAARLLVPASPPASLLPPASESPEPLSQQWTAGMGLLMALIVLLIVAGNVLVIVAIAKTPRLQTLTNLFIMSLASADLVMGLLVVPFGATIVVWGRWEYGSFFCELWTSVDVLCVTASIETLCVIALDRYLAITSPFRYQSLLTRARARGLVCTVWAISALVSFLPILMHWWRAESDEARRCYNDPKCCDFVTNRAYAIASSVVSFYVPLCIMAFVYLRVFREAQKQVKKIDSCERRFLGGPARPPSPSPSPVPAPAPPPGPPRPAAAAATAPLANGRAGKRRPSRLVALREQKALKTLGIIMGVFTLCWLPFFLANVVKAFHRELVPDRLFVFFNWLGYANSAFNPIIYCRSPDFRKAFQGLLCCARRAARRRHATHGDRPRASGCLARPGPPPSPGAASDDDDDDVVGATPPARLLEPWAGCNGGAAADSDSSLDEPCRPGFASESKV
Assay [12] has as its target Gamma-aminobutyric acid type B receptor subunit 1 (Homo sapiens, UniProt Q9UBS5).
Also: assay procedure not described here.

T5 sequence (P35367 whole entry): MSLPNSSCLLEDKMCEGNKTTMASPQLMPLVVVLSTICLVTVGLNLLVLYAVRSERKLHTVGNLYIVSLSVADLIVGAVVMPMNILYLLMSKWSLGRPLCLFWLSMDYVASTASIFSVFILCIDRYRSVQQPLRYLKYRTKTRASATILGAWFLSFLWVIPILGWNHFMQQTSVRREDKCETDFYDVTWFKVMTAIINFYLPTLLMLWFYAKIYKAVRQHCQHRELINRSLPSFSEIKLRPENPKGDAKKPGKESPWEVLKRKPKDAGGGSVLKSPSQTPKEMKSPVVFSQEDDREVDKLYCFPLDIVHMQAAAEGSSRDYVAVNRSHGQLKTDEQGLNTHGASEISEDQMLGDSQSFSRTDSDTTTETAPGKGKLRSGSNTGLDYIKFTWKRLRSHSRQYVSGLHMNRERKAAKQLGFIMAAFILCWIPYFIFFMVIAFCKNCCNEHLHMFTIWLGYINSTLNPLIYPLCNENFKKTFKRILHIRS
Sequence of 5-hydroxytryptamine receptor 5A (P47898 whole entry): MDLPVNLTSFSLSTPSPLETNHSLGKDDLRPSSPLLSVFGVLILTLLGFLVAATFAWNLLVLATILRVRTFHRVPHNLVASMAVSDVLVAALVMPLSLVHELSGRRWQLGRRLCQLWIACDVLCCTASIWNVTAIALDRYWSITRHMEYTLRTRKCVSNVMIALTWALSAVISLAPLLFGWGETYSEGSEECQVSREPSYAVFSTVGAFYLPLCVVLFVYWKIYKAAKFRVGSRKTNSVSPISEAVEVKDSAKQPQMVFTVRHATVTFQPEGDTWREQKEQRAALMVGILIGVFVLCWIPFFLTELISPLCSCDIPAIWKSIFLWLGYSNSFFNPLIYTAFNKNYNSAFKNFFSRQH
Sequence of Gamma-aminobutyric acid type B receptor subunit 1 (Q9UBS5 whole entry): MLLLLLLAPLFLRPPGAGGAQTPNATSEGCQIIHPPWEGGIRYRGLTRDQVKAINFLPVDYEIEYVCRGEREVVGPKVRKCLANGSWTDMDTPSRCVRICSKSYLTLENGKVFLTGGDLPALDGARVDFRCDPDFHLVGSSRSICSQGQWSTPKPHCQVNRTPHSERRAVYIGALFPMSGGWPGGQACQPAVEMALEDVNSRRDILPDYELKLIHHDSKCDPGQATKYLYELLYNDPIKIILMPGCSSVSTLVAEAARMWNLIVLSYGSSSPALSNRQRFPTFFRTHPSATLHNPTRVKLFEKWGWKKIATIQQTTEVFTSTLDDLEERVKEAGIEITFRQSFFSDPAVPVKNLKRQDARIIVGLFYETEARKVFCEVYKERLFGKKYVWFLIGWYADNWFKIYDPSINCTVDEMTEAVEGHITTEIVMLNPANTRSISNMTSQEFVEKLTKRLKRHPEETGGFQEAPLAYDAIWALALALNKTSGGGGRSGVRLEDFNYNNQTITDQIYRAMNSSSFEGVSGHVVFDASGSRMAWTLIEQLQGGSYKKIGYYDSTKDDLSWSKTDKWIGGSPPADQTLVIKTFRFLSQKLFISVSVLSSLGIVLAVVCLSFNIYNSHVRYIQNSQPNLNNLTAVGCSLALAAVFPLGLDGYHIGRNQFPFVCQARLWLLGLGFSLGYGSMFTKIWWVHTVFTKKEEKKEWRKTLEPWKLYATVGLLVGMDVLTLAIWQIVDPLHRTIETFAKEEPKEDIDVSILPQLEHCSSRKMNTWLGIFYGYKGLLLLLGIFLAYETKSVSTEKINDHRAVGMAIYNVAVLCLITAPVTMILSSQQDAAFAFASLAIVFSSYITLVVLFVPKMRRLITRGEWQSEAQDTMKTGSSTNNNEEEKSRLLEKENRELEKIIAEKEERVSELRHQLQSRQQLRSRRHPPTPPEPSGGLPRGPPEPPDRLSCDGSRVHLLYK
Sequence of Rod cGMP-specific 3',5'-cyclic phosphodiesterase subunit alpha (P16499 whole entry): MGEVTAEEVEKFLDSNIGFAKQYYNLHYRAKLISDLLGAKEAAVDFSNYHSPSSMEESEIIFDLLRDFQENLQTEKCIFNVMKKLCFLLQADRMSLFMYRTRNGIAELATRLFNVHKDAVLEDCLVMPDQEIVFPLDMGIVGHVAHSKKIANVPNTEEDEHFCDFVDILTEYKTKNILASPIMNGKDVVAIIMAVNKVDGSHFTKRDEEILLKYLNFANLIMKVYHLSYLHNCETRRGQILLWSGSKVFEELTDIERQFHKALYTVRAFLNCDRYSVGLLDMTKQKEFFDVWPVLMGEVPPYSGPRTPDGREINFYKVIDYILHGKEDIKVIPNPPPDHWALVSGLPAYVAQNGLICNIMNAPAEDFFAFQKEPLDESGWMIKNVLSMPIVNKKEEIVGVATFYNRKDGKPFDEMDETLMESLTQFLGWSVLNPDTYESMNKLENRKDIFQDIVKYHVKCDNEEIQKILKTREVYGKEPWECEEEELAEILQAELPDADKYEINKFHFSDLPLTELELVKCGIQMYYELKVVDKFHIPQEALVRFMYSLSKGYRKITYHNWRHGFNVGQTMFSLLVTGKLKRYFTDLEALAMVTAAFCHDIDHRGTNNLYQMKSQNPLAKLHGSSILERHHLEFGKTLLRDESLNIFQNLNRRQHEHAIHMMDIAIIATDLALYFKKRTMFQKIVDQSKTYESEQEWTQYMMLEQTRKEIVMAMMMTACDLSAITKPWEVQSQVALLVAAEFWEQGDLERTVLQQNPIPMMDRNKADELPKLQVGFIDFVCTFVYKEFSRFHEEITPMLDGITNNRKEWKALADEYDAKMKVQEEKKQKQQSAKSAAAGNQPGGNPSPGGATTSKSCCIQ

With `O=C(Nc1ccccc1)OCC(CN1CCCCC1)OC(=O)Nc1ccccc1` (stereo not drawn) [DIPERODON], the AC50 in assay [1], in assay [2], in assay [3], in assay [4], in [5] and in assay [6] was above 10 µM each time. Further, in assay [7], the AC50 is above 30 µM.

With `CCCC(=O)N1CCCN(c2nc(N)c3cc(OC)c(OC)cc3n2)CC1` [BUNAZOSIN], the AC50 in assay [8], in [9] and in assay [10] was above 30 µM throughout.

In the case of `CC(C(O)c1ccc(O)cc1)N1CCC(Cc2ccccc2)CC1` (stereo not drawn) [IFENPRODIL], the AC50 in assay [11] is above 30 µM.

`O=C1CCC(N2C(=O)c3ccccc3C2=O)C(=O)N1` (stereo not drawn) [THALIDOMIDE] registered an AC50 in assay [12] above 10 µM.

With `C=C1C[C@@H]2[C@H](CC[C@]3(C)C(=O)CC[C@@H]23)[C@@]2(C)C=CC(=O)C=C12` [EXEMESTANE], the AC50 in [9] and in [10] was above 30 µM throughout.

Compound `CS(=O)(=O)Nc1cc2occ(NC=O)c(=O)c2cc1Oc1ccccc1` [IGURATIMOD] gave an AC50 in assay [8] above 30 µM.

As to `CN(CCCN1c2ccccc2CCc2ccccc21)CC(=O)c1ccc(Cl)cc1` [LOFEPRAMINE], the AC50 in [11] is above 30 µM.

With `CN(C)CCCN1c2ccccc2Sc2ccccc21` [PROMAZINE], the AC50 in assay [1] was 1.44 µM; in assay [2] it was 0.589 µM; in assay [3], 5.78 µM; in [4], 0.823 µM; in assay [5], above 10 µM; in assay [6], above 10 µM.

Consider `O=P(O)(O)C(O)(Cc1cccnc1)P(=O)(O)O` [RISEDRONIC ACID], for which the concentration at half-maximal activity (AC50) in assay [12] is above 10 µM.

For orientation: AC50 means the concentration at which the activity in the assay is half-maximal. The low end stands for greater potency, the high end for weaker potency.
